“And” between values parts separate entries of the source, which are not always exact repeats. Equal entries are not always repeated. ± gives the uncertainty stated by the source.
Assay: xn = mol fraction of the nth substance listed

## CCCC[P+](CC)(CC)CC.N#Cc1ccc[n-]1 + OCCN(CCO)CCO
293.15 K, 100 kPa, x1 = 0.005
  electrical conductivity: 0.0013 ± 0.0001 S/m
293.15 K, 100 kPa, x1 = 0.012
  electrical conductivity: 0.0027 ± 0.0003 S/m
293.15 K, 100 kPa, x1 = 0.029
  electrical conductivity: 0.0046 ± 0.0005 S/m
  viscosity: 980 ± 150 mPa·s
293.15 K, 100 kPa, x1 = 0.035
  electrical conductivity: 0.005 ± 0.0005 S/m
293.15 K, 100 kPa, x1 = 0.223
  viscosity: 810 ± 120 mPa·s
293.15 K, 100 kPa, x1 = 0.459
  electrical conductivity: 0.0205 ± 0.0021 S/m
298.15 K, 100 kPa, x1 = 0.018
  viscosity: 629 ± 94 mPa·s
303.15 K, 100 kPa, x1 = 0.223
  viscosity: 341 ± 50 mPa·s
303.15 K, 100 kPa, x1 = 0.508
  viscosity: 278 ± 40 mPa·s

## CCCCCC[n+]1ccn(C)c1.[Cl-] + OCCO
293.15 K, 101 kPa, x2 = 0.4977
  viscosity: 172.9 ± 5 mPa·s
293.15 K, 101 kPa, x2 = 0.6002
  viscosity: 83.9 ± 1.9 mPa·s
303.15 K, 101 kPa, x2 = 0
  viscosity: 4206 ± 320 mPa·s
313.15 K, 101 kPa, x1 = 0.0188
  viscosity: 10.05 ± 0.21 mPa·s
313.15 K, 101 kPa, x2 = 0.6987
  viscosity: 21.31 ± 0.46 mPa·s
313.15 K, 101 kPa, x2 = 0.8897
  viscosity: 11.47 ± 0.24 mPa·s
313.15 K, 101 kPa, x2 = 0.9642
  viscosity: 10.19 ± 0.22 mPa·s
313.15 K, 101 kPa, x2 = 0.9761
  viscosity: 10.09 ± 0.21 mPa·s
323.15 K, 101 kPa, x1 = 0.0061
  viscosity: 7.09 ± 0.15 mPa·s
323.15 K, 101 kPa, x2 = 0
  viscosity: 783 ± 38 mPa·s
323.15 K, 101 kPa, x2 = 0.6002
  viscosity: 24.77 ± 0.53 mPa·s
323.15 K, 101 kPa, x2 = 0.6987
  viscosity: 15.34 ± 0.33 mPa·s
323.15 K, 101 kPa, x2 = 0.8998
  viscosity: 8.19 ± 0.17 mPa·s
323.15 K, 101 kPa, x2 = 0.9642
  viscosity: 7.38 ± 0.16 mPa·s
333.15 K, 101 kPa, x1 = 0.0061
  viscosity: 5.28 ± 0.11 mPa·s
333.15 K, 101 kPa, x2 = 0.1526
  viscosity: 191.8 ± 5.8 mPa·s
333.15 K, 101 kPa, x2 = 0.4977
  viscosity: 29.57 ± 0.64 mPa·s
333.15 K, 101 kPa, x2 = 0.6987
  viscosity: 11.45 ± 0.25 mPa·s
333.15 K, 101 kPa, x2 = 0.9532
  viscosity: 5.61 ± 0.12 mPa·s

## CCCCCC[n+]1ccn(C)c1.[Cl-] + OC[C@H]1O[C@@](CO)(O[C@H]2O[C@H](CO)[C@@H](O)[C@H](O)[C@H]2O)[C@@H](O)[C@@H]1O + O
298.15 K, 101.3 kPa, x2 = 0, x1 = 4.23e-06
  electrical conductivity: 0.00276 ± 3e-05 S/m
298.15 K, 101.3 kPa, x2 = 0, x1 = 7.11e-06
  electrical conductivity: 0.00451 ± 5e-05 S/m
298.15 K, 101.3 kPa, x2 = 0, x1 = 1.01e-05
  electrical conductivity: 0.00631 ± 6e-05 S/m
298.15 K, 101.3 kPa, x2 = 0, x1 = 1.293e-05
  electrical conductivity: 0.008 ± 8e-05 S/m
298.15 K, 101.3 kPa, x2 = 0, x1 = 1.551e-05
  electrical conductivity: 0.00953 ± 0.0001 S/m
298.15 K, 101.3 kPa, x2 = 0, x1 = 1.836e-05
  electrical conductivity: 0.01121 ± 0.00011 S/m
298.15 K, 101.3 kPa, x2 = 0, x1 = 2.116e-05
  electrical conductivity: 0.0129 ± 0.00013 S/m
298.15 K, 101.3 kPa, x2 = 0, x1 = 2.393e-05
  electrical conductivity: 0.0145 ± 0.00015 S/m
298.15 K, 101.3 kPa, x2 = 0, x1 = 2.652e-05
  electrical conductivity: 0.016 ± 0.00016 S/m
298.15 K, 101.3 kPa, x2 = 0, x1 = 2.919e-05
  electrical conductivity: 0.0175 ± 0.00018 S/m
298.15 K, 101.3 kPa, x2 = 0.003591, x1 = 8.04e-06
  electrical conductivity: 0.00433 ± 4e-05 S/m
298.15 K, 101.3 kPa, x2 = 0.003591, x1 = 1.174e-05
  electrical conductivity: 0.00611 ± 6e-05 S/m
298.15 K, 101.3 kPa, x2 = 0.003591, x1 = 1.526e-05
  electrical conductivity: 0.00778 ± 8e-05 S/m
298.15 K, 101.3 kPa, x2 = 0.003591, x1 = 1.864e-05
  electrical conductivity: 0.00936 ± 9e-05 S/m
298.15 K, 101.3 kPa, x2 = 0.003591, x1 = 2.202e-05
  electrical conductivity: 0.0109 ± 0.00011 S/m
298.15 K, 101.3 kPa, x2 = 0.003591, x1 = 2.53e-05
  electrical conductivity: 0.01242 ± 0.00012 S/m
298.15 K, 101.3 kPa, x2 = 0.003591, x1 = 2.853e-05
  electrical conductivity: 0.0139 ± 0.00014 S/m
298.15 K, 101.3 kPa, x2 = 0.003591, x1 = 3.177e-05
  electrical conductivity: 0.01532 ± 0.00015 S/m
298.15 K, 101.3 kPa, x2 = 0.003591, x1 = 3.49e-05
  electrical conductivity: 0.0167 ± 0.00017 S/m
298.15 K, 101.3 kPa, x2 = 0.003591, x1 = 3.779e-05
  electrical conductivity: 0.018 ± 0.00018 S/m
298.15 K, 101.3 kPa, x2 = 0.007156, x1 = 6.71e-06
  electrical conductivity: 0.00314 ± 3e-05 S/m
298.15 K, 101.3 kPa, x2 = 0.007156, x1 = 1.012e-05
  electrical conductivity: 0.00459 ± 5e-05 S/m
298.15 K, 101.3 kPa, x2 = 0.007156, x1 = 1.35e-05
  electrical conductivity: 0.00603 ± 6e-05 S/m
298.15 K, 101.3 kPa, x2 = 0.007156, x1 = 1.699e-05
  electrical conductivity: 0.00749 ± 8e-05 S/m
298.15 K, 101.3 kPa, x2 = 0.007156, x1 = 2.028e-05
  electrical conductivity: 0.00888 ± 9e-05 S/m
298.15 K, 101.3 kPa, x2 = 0.007156, x1 = 2.319e-05
  electrical conductivity: 0.0101 ± 0.0001 S/m
298.15 K, 101.3 kPa, x2 = 0.007156, x1 = 2.608e-05
  electrical conductivity: 0.01131 ± 0.00011 S/m
298.15 K, 101.3 kPa, x2 = 0.007156, x1 = 2.915e-05
  electrical conductivity: 0.0126 ± 0.00013 S/m
298.15 K, 101.3 kPa, x2 = 0.007156, x1 = 3.212e-05
  electrical conductivity: 0.0138 ± 0.00014 S/m
298.15 K, 101.3 kPa, x2 = 0.007156, x1 = 3.545e-05
  electrical conductivity: 0.01517 ± 0.00015 S/m
298.15 K, 101.3 kPa, x2 = 0.0107, x1 = 7.99e-06
  electrical conductivity: 0.00313 ± 3e-05 S/m
298.15 K, 101.3 kPa, x2 = 0.0107, x1 = 1.176e-05
  electrical conductivity: 0.00442 ± 4e-05 S/m
298.15 K, 101.3 kPa, x2 = 0.0107, x1 = 1.521e-05
  electrical conductivity: 0.00559 ± 6e-05 S/m
298.15 K, 101.3 kPa, x2 = 0.0107, x1 = 1.87e-05
  electrical conductivity: 0.00676 ± 7e-05 S/m
298.15 K, 101.3 kPa, x2 = 0.0107, x1 = 2.207e-05
  electrical conductivity: 0.00787 ± 8e-05 S/m
298.15 K, 101.3 kPa, x2 = 0.0107, x1 = 2.533e-05
  electrical conductivity: 0.00894 ± 9e-05 S/m
298.15 K, 101.3 kPa, x2 = 0.0107, x1 = 2.851e-05
  electrical conductivity: 0.00998 ± 0.0001 S/m
298.15 K, 101.3 kPa, x2 = 0.0107, x1 = 3.135e-05
  electrical conductivity: 0.0109 ± 0.00011 S/m
298.15 K, 101.3 kPa, x2 = 0.0107, x1 = 3.442e-05
  electrical conductivity: 0.0119 ± 0.00012 S/m
298.15 K, 101.3 kPa, x2 = 0.0107, x1 = 3.724e-05
  electrical conductivity: 0.0128 ± 0.00013 S/m
298.15 K, 101.3 kPa, x2 = 0.01421, x1 = 1.053e-05
  electrical conductivity: 0.00345 ± 4e-05 S/m
298.15 K, 101.3 kPa, x2 = 0.01421, x1 = 1.542e-05
  electrical conductivity: 0.00495 ± 5e-05 S/m
298.15 K, 101.3 kPa, x2 = 0.01421, x1 = 2.022e-05
  electrical conductivity: 0.00641 ± 6e-05 S/m
298.15 K, 101.3 kPa, x2 = 0.01421, x1 = 2.485e-05
  electrical conductivity: 0.00781 ± 8e-05 S/m
298.15 K, 101.3 kPa, x2 = 0.01421, x1 = 2.901e-05
  electrical conductivity: 0.00905 ± 9e-05 S/m
298.15 K, 101.3 kPa, x2 = 0.01421, x1 = 3.286e-05
  electrical conductivity: 0.0102 ± 0.0001 S/m
298.15 K, 101.3 kPa, x2 = 0.01421, x1 = 3.675e-05
  electrical conductivity: 0.01135 ± 0.00011 S/m
298.15 K, 101.3 kPa, x2 = 0.01421, x1 = 4.055e-05
  electrical conductivity: 0.0125 ± 0.00013 S/m
298.15 K, 101.3 kPa, x2 = 0.01421, x1 = 4.424e-05
  electrical conductivity: 0.0136 ± 0.00014 S/m
298.15 K, 101.3 kPa, x2 = 0.01421, x1 = 4.811e-05
  electrical conductivity: 0.0147 ± 0.00015 S/m
298.15 K, 101.3 kPa, x2 = 0.0177, x1 = 9.25e-06
  electrical conductivity: 0.00262 ± 3e-05 S/m
298.15 K, 101.3 kPa, x2 = 0.0177, x1 = 1.338e-05
  electrical conductivity: 0.0037 ± 4e-05 S/m
298.15 K, 101.3 kPa, x2 = 0.0177, x1 = 1.736e-05
  electrical conductivity: 0.00474 ± 5e-05 S/m
298.15 K, 101.3 kPa, x2 = 0.0177, x1 = 2.112e-05
  electrical conductivity: 0.00571 ± 6e-05 S/m
298.15 K, 101.3 kPa, x2 = 0.0177, x1 = 2.447e-05
  electrical conductivity: 0.00658 ± 7e-05 S/m
298.15 K, 101.3 kPa, x2 = 0.0177, x1 = 2.813e-05
  electrical conductivity: 0.00751 ± 8e-05 S/m
298.15 K, 101.3 kPa, x2 = 0.0177, x1 = 3.139e-05
  electrical conductivity: 0.00835 ± 8e-05 S/m
298.15 K, 101.3 kPa, x2 = 0.0177, x1 = 3.466e-05
  electrical conductivity: 0.00918 ± 9e-05 S/m
298.15 K, 101.3 kPa, x2 = 0.0177, x1 = 3.742e-05
  electrical conductivity: 0.00987 ± 0.0001 S/m
298.15 K, 101.3 kPa, x2 = 0.0177, x1 = 4.046e-05
  electrical conductivity: 0.0106 ± 0.00011 S/m
298.15 K, 101.3 kPa, x2 = 0.02116, x3 = 0.9787
  electrical conductivity: 0.01832 ± 0.00018 S/m
298.15 K, 101.3 kPa, x2 = 0.02116, x3 = 0.9788
  electrical conductivity: 0.014 S/m and 0.0154 S/m and 0.0169 S/m

Reference: the CheMixHub ionic liquid set
